For data set [1] the following is noted: cited from earlier work.
Data set [2] has as its system Caco-2 cells. The data set is described as follows: Cytotoxicity assay. Type of data set: cell-based, human. As to conditions: 100µM, 48 h.
Data set [3] concerns the target T1, SMVT (Canis lupus familiaris, UniProt A0A8I3MY61).
T1 sequence (A0A8I3MY61 1-636): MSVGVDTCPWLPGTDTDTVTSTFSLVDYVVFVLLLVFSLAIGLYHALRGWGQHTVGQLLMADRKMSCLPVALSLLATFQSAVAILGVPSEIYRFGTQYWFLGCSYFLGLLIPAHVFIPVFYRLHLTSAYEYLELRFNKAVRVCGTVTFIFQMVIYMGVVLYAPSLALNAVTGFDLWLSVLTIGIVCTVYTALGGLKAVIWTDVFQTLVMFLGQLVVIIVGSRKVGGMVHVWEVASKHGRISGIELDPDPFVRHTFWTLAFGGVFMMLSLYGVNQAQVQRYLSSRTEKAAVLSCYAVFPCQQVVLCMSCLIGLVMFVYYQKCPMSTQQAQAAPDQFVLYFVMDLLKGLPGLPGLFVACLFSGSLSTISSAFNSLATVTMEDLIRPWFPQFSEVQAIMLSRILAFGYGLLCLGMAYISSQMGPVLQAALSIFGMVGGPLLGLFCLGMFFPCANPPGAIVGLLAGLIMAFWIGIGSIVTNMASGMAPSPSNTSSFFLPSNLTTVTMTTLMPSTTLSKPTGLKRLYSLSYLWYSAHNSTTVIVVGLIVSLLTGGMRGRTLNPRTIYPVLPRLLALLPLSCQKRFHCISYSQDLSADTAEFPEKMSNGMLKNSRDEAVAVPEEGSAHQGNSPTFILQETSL
As to conditions: read-out: IC50 for inhibition of [3H] biotin uptake; MDCK-MDR1 cells, 0.1–100µM, 30 min.

Data set [4] has as its system Caco-2 cells. The data set is described as follows: Cellular accumulation on Caco-2 cell monolayers. To be noted: 30 min incubation, Fig. 3.
Data set [5] has as its target T1, SMVT. To be noted: read-out: apparent affinity constant (Km) towards SMVT; MDCK-MDR1 cells, [3H] biotin uptake, 0.1–100µM, 30 min, Michaelis-Menten fit.
The target in data set [6] is T1, SMVT. In kind it is cell-based, canine. To be noted: MDCK-MDR1 cells, excess biotin, Fig. 4.
Data set [7] has as its system MDCK-MDR1 cells. The data set is described as follows: Cellular accumulation on MDCK-MDR1 cell monolayers. To be noted: 30 min incubation, Fig. 2.
For data set [8], the target named is T1, SMVT. To be noted: MDCK-MDR1 monolayers, 0.5µCi/ml, no inhibitor.

Results on six compounds are retold here after PMC3401275 (International Journal of Pharmaceutics, 2012).

As to `Nc1nc2c(ncn2COCCO)c(=O)[nH]1` [ACV, 2-amino-9-((2-hydroxyethoxy)methyl)-1H-purin-6(9H)-one], the oral bioavailability in data set [1] (in vivo, po) is given as 15–30%. In addition, in data set [2], the cytotoxic effect entry is given as “Neither ACV nor its targeted lipid prodrugs demonstrate any cytotoxic effect”.

What is called IC50 is the concentration needed to halve the response being measured. One may read the Km as the substrate concentration at which the rate is half of its maximum. `CCCCCCC(CCCCCCCCCCC(=O)OCCOCn1cnc2c(=O)[nH]c(N)nc21)OC(=O)CCCC[C@@H]1SC[C@@H]2NC(=O)N[C@@H]21` (stereo partly shown) [B-12HS-ACV, biotin-12hydroxystearicacid-acyclovir]: the IC50 in data set [3] was determined as 8.17 ± 0.09 µM. The “increase in the uptake compared to ACV” value in data set [4] worked out at 8.3 times. In addition, the Km in data set [5] stood at 24 ± 3.2 µM. Besides, the “uptake of prodrug in the presence of unlabeled biotin” value (“uptake of prodrug” for short) in data set [6] is listed as “significantly lower”.

`Nc1nc2c(ncn2COCCOC(=O)CCCC[C@@H]2SC[C@@H]3NC(=O)N[C@@H]32)c(=O)[nH]1` [B-ACV, Biotin-ACV]: the IC50 in data set [3] amounted to 14.84 ± 0.1 µM. Further, the “increase in the uptake compared to ACV” value in data set [4] was 3.5 times. Besides, in data set [5], the Km is 30.9 ± 4.19 µM. Moreover, the “increase in the uptake compared to parent drug, ACV” value in data set [7] stood at 6 times. Also, the “uptake of prodrug” value in data set [6] was “significantly lower”.

With `CC(C)[C@H](N)C(=O)OCCOCn1cnc2c(=O)[nH]c(N)nc21` [VACV, Valacyclovir], the “increase of the oral bioavailability of ACV” value in data set [1] (ref Balimane et al., 1998, de Vrueh et al., Guo et al., 1999, Jacobson, 1993, Perry and Faulds, 1996, Soul-Lawton et al., 1995, Talluri et al., 2008) was 3 to 5 fold.

With [^3H] Biotin, the “Permeability of [3H] biotin alone” value in data set [8] worked out at 4.74 ×10⁻⁶ cm/s.

“biotin-ricinoleicacid-acyclovir [B-R-ACV]”: the IC50 in data set [3] is 8.04 ± 0.07 µM. In data set [5], the Km was determined as 20.2 ± 1.74 µM. The “uptake of prodrug” value in data set [6] is listed as “significantly lower”.
